Laboratory results published in article PMC6194020, “Cryo-EM structures of human STEAP4 reveal mechanism of iron(III) reduction” (Nature Communications, 2018).

What was measured:
STEAP4EM [1] = target: T1, STEAP4EM (Homo sapiens, UniProt Q687X5); assay: ferrozine ferric-reductase assay, FAD varied, binding curve fit; assay type: biochemical; settings: 200 µM Fe3+-NTA, 75 µM NADPH, 37 °C, SEC buffer pH 5.5, digitonin; Kd from activity curve; also seen in cryo-EM structures
T1 construct: gene STEAP4; residues K18-Q456 (deltaN17 deltaC3), C-terminal GFP-Strep3 tag removed by TEV; codon-optimised, HEK293 GNTI- cells; digitonin-solubilised homotrimer; cytosolic oxidoreductase domain plus transmembrane domain
T1 sequence (Q687X5 18-456): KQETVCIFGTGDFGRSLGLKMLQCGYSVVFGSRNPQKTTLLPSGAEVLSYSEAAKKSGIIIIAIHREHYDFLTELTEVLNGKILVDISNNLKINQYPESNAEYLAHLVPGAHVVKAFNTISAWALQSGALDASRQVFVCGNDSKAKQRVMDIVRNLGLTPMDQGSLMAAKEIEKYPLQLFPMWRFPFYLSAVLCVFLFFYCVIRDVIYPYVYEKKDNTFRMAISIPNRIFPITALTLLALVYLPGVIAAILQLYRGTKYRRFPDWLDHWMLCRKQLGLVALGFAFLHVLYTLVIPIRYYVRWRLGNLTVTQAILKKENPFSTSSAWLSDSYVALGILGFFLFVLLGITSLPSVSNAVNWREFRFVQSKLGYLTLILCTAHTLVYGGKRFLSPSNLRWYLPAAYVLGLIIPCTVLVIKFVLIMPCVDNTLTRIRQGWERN

[2] = target: T2, GFP-tagged full-length STEAP4 (Homo sapiens, UniProt Q687X5); assay: ferrozine ferric-reductase assay, FAD varied; assay type: biochemical; settings: 200 µM Fe3+-NTA, 75 µM NADPH, 37 °C, SEC buffer pH 5.5, digitonin
T2 construct: full-length, C-terminal GFP-Strep3 tag kept; detergent-purified (digitonin), trimer
T2 sequence (Q687X5 1-459): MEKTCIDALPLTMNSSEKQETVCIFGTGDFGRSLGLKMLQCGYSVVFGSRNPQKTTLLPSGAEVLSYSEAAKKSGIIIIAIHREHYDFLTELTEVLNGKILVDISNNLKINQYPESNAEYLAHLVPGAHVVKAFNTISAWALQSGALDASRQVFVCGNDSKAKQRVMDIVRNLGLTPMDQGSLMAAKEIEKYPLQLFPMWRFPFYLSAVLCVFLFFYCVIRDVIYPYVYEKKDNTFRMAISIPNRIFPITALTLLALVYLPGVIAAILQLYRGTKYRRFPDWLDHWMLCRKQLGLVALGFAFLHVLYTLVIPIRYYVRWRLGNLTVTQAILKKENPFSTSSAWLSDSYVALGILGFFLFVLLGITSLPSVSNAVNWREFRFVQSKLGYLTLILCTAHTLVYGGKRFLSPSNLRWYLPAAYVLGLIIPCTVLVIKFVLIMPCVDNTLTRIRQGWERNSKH

STEAP4EM [3] = target: T1, STEAP4EM; assay: ferric-reductase assay with FMN instead of FAD; assay type: biochemical; settings: FMN in place of FAD; construct (STEAP4EM or full length) not stated in main text
[4] = target: T2, GFP-tagged full-length STEAP4; assay: ferrozine ferric-reductase assay, NADPH varied; assay type: biochemical; settings: 200 µM Fe3+-NTA, 10 µM FAD, 37 °C, SEC buffer pH 5.5, digitonin
[5] = target: T3, GFP-tagged full-length STEAP4 (Homo sapiens, UniProt Q687X5, S138Q); assay: ferrozine ferric-reductase assay, NADPH varied; assay type: biochemical; settings: 200 µM Fe3+-NTA, 10 µM FAD, 37 °C, SEC buffer pH 5.5, digitonin
T3 construct: full-length, C-terminal GFP-Strep3 tag kept; detergent-purified (digitonin), trimer
T3 sequence (Q687X5 1-459 S138Q): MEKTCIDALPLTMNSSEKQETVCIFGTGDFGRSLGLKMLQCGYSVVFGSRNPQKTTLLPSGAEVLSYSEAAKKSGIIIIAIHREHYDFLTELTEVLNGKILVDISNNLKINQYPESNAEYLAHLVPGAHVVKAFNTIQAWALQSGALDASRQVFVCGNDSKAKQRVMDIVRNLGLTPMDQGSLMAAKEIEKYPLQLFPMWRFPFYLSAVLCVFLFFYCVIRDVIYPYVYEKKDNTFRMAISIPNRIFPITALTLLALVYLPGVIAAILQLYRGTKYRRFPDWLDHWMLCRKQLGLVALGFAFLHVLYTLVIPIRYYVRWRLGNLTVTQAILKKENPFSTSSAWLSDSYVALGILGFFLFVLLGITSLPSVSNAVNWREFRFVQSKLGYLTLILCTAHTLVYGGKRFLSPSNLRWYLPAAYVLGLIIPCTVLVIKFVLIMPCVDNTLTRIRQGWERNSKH

[6] = target: STEAP4EM (human STEAP4 residues K18-Q456, ΔN17ΔC3), non-TEV cleaved, with C-terminal GFP-Strep3 tag (human); assay: SEC-MALS; non-TEV cleaved STEAP4EM on Superdex200 10/300 increase in 20 mM Tris pH 8.0, 150 mM NaCl, 0.08% digitonin, 0.75 ml/min; protein conjugate analysis to separate protein and micelle
[7] = target: the molecule itself; assay: not stated; purified S138Q mutant; data in Supplementary Fig. 13
[8] = substrate: NC(=O)C1=CN([C@@H]2O[C@H](COP(=O)(O)OP(=O)(O)OC[C@H]3O[C@@H](n4cnc5c(N)ncnc54)[C@H](OP(=O)(O)O)[C@@H]3O)[C@@H](O)[C@H]2O)C=CC1; assay: ferrozine ferric-reductase assay, NADPH varied; assay type: biochemical, Homo sapiens; settings: 200 µM Fe3+-NTA, 10 µM FAD, 37 °C, SEC buffer pH 5.5, digitonin, also seen in cryo-EM structure

## Cc1cc2nc3c(=O)[nH]c(=O)nc-3n(C[C@H](O)[C@H](O)[C@H](O)COP(=O)(O)OP(=O)(O)OC[C@H]3O[C@@H](n4cnc5c(N)ncnc54)[C@H](O)[C@@H]3O)c2cc1C [FAD]
STEAP4EM [1]
  Kd: 1200 nM
[2]
  ferrozine ferric-reductase assay, FAD varied: full-length STEAP4 wildtype (WT) and S138Q mutant with varying FAD concentrations

## Cc1cc2nc3c(=O)[nH]c(=O)nc-3n(C[C@H](O)[C@H](O)[C@H](O)COP(=O)(O)O)c2cc1C [FMN]
STEAP4EM [3]
  ferric-reductase assay with FMN instead of FAD: FMN may act as a cofactor in STEAP4-catalyzed iron reduction

## NC(=O)C1=CN([C@@H]2O[C@H](COP(=O)(O)OP(=O)(O)OC[C@H]3O[C@@H](n4cnc5c(N)ncnc54)[C@H](OP(=O)(O)O)[C@@H]3O)[C@@H](O)[C@H]2O)C=CC1 [NADPH]
[4]
  ferrozine ferric-reductase assay, NADPH varied: full-length STEAP4 WT and S138Q mutant with varying NADPH concentrations
[5]
  ferrozine ferric-reductase assay, NADPH varied: displayed strongly impaired ferric-reductase activity

## STEAP4EM (human STEAP4 residues K18-Q456, ΔN17ΔC3), non-TEV cleaved, with C-terminal GFP-Strep3 tag (enzyme)
[6]
  stoichiometry N: 3

B1: full-length human STEAP4 S138Q mutant (enzyme, UniProt Q687X5 1-459, looked up)
chain: MEKTCIDALPLTMNSSEKQETVCIFGTGDFGRSLGLKMLQCGYSVVFGSRNPQKTTLLPSGAEVLSYSEAAKKSGIIIIAIHREHYDFLTELTEVLNGKILVDISNNLKINQYPESNAEYLAHLVPGAHVVKAFNTIQAWALQSGALDASRQVFVCGNDSKAKQRVMDIVRNLGLTPMDQGSLMAAKEIEKYPLQLFPMWRFPFYLSAVLCVFLFFYCVIRDVIYPYVYEKKDNTFRMAISIPNRIFPITALTLLALVYLPGVIAAILQLYRGTKYRRFPDWLDHWMLCRKQLGLVALGFAFLHVLYTLVIPIRYYVRWRLGNLTVTQAILKKENPFSTSSAWLSDSYVALGILGFFLFVLLGITSLPSVSNAVNWREFRFVQSKLGYLTLILCTAHTLVYGGKRFLSPSNLRWYLPAAYVLGLIIPCTVLVIKFVLIMPCVDNTLTRIRQGWERNSKH
notes: six-transmembrane epithelial antigen of the prostate 4 (STEAP4), human, full length, with S138Q; source: detergent-purified
[7]
  stoichiometry N: 3

B2: STEAP4EM (Homo sapiens) (protein)
chain: KQETVCIFGTGDFGRSLGLKMLQCGYSVVFGSRNPQKTTLLPSGAEVLSYSEAAKKSGIIIIAIHREHYDFLTELTEVLNGKILVDISNNLKINQYPESNAEYLAHLVPGAHVVKAFNTISAWALQSGALDASRQVFVCGNDSKAKQRVMDIVRNLGLTPMDQGSLMAAKEIEKYPLQLFPMWRFPFYLSAVLCVFLFFYCVIRDVIYPYVYEKKDNTFRMAISIPNRIFPITALTLLALVYLPGVIAAILQLYRGTKYRRFPDWLDHWMLCRKQLGLVALGFAFLHVLYTLVIPIRYYVRWRLGNLTVTQAILKKENPFSTSSAWLSDSYVALGILGFFLFVLLGITSLPSVSNAVNWREFRFVQSKLGYLTLILCTAHTLVYGGKRFLSPSNLRWYLPAAYVLGLIIPCTVLVIKFVLIMPCVDNTLTRIRQGWERN
notes: residues K18-Q456 (deltaN17 deltaC3), C-terminal GFP-Strep3 tag removed by TEV; codon-optimised, HEK293 GNTI- cells; digitonin-solubilised homotrimer; cytosolic oxidoreductase domain plus transmembrane domain
[8]
  Km: 4.2 µM
